pKd: −log10 of the molar value. The source made the active and inactive calls. The calls are words filed in the database; no cut-off is given here.
Tests used:
Rattus norvegicus [1] = assay: Anti-inflammatory activity in Rattus norvegicus Wistar (rat) assessed as inhibition of carrageenan-induced paw edema at 10 mg/kg administered for 1 hr followed by carrageenan challenge measured at 2 hr relative to control; format: functional
Rattus norvegicus [2] = assay: Anti-inflammatory activity in Rattus norvegicus Wistar (rat) assessed as inhibition of carrageenan-induced paw edema at 10 mg/kg administered for 1 hr followed by carrageenan challenge measured at 1 hr relative to control; format: functional
[3] = molecular target: T1, Prostaglandin G/H synthase 2 (Homo sapiens) (UniProt P35354); assay: Inhibition of COX2 (unknown origin) at 10 uM
T1 sequence (whole entry): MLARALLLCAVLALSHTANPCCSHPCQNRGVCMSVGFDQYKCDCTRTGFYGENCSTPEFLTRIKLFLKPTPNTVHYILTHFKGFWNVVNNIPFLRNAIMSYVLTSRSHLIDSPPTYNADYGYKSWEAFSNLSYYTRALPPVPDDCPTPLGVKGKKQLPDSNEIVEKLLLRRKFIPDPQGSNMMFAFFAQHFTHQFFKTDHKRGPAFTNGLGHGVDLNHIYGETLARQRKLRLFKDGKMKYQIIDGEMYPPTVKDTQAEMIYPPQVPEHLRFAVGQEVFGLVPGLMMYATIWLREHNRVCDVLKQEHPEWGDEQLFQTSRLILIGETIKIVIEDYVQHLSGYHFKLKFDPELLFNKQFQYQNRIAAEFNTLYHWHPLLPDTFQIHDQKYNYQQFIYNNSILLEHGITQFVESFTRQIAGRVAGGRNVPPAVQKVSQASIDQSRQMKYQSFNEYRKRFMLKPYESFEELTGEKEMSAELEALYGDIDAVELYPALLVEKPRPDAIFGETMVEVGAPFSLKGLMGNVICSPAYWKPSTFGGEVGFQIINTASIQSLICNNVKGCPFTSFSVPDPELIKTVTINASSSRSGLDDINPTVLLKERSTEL

Rattus norvegicus [4] = assay: Anti-inflammatory activity in Rattus norvegicus Wistar (rat) assessed as inhibition of carrageenan-induced paw edema at 10 mg/kg administered for 1 hr followed by carrageenan challenge measured at 3 hr relative to control; format: functional
Rattus norvegicus [5] = assay: Gastrointestinal toxicity in Rattus norvegicus Wistar (rat) duodenum assessed as appearance of redness at 10 mg/kg, po relative to vehicle-treated control; format: organism-based; parameters: dose 10 mg/kg, route oral; details: in vivo
Rattus norvegicus [6] = assay: Anti-inflammatory activity in Rattus norvegicus Wistar (rat) assessed as decrease in cotton pellet-induced dry granuloma weight at 10 mg/kg, po administered for 7 days measured on day 8; format: functional, organism-based; parameters: dose 10 mg/kg
Rattus norvegicus [7] = assay: Ulcerogenic activity in Rattus norvegicus Wistar (rat) stomach at 10 mg/kg, po relative to vehicle-treated control; format: toxicity, organism-based; parameters: dose 10 mg/kg, route oral; details: in vivo
[8] = molecular target: T2, Prostaglandin G/H synthase 1 (Homo sapiens, UniProt P23219); assay: Binding affinity to COX1 (unknown origin)
T2 sequence (P23219 whole entry): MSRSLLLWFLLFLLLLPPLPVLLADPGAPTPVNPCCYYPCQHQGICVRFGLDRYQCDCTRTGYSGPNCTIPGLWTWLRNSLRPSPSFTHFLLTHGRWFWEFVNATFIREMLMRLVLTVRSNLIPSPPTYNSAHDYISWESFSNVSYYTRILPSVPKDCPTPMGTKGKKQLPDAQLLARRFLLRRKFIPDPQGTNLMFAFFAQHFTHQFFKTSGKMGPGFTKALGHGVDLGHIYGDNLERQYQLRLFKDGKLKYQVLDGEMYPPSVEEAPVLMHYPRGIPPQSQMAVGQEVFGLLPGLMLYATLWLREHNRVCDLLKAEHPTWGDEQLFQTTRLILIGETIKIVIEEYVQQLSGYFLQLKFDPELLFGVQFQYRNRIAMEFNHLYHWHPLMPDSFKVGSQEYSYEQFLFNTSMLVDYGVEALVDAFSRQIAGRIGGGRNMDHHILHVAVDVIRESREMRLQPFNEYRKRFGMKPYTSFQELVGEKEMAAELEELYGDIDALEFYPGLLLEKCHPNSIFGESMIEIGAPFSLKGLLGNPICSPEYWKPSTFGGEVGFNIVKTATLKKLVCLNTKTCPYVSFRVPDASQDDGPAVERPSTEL

[9] = molecular target: T2, Prostaglandin G/H synthase 1; assay: Inhibition of COX1 (unknown origin)
Rattus norvegicus [10] = assay: Anti-inflammatory activity in Rattus norvegicus Wistar (rat) assessed as inhibition of carrageenan-induced paw edema at 10 mg/kg administered for 1 hr followed by carrageenan challenge measured at 4 hr relative to control; format: functional
[11] = molecular target: T3, Prostaglandin G/H synthase 2 (Homo sapiens, UniProt P35354); assay: Binding affinity to COX2 (unknown origin)
T3 sequence (P35354 whole entry): T1 sequence (whole entry)

Rattus norvegicus [12] = assay: Anti-inflammatory activity in Rattus norvegicus Wistar (rat) assessed as cotton pellet-induced final granuloma weight at 10 mg/kg, po administered for 7 days measured on day 8 (reference value: 110.3 +/- 8.7 mg); format: functional
Rattus norvegicus [13] = species on record: Rattus norvegicus; assay: Toxicity in Rattus norvegicus Wistar (rat); format: organism-based; details: in vivo
Rattus norvegicus [14] = assay: Gastrointestinal toxicity in Rattus norvegicus Wistar (rat) stomach assessed as appearance of redness at 10 mg/kg, po relative to vehicle-treated control; format: organism-based; parameters: dose 10 mg/kg, route oral; details: in vivo
Rattus norvegicus [15] = assay: Anti-inflammatory activity in Rattus norvegicus Wistar (rat) assessed as decrease in cotton pellet-induced wet granuloma weight at 10 mg/kg, po administered for 7 days measured on day 8; format: functional, organism-based; parameters: dose 10 mg/kg
Rattus norvegicus [16] = assay: Anti-inflammatory activity in Rattus norvegicus Wistar (rat) assessed as decrease in cotton pellet-induced final granuloma weight at 10 mg/kg, po administered for 7 days measured on day 8; format: functional, organism-based; parameters: dose 10 mg/kg
[17] = molecular target: T2, Prostaglandin G/H synthase 1; assay: Inhibition of COX1 (unknown origin) at 1 uM
Rattus norvegicus [18] = assay: Anti-inflammatory activity in Rattus norvegicus Wistar (rat) assessed as inhibition of carrageenan-induced paw edema administered for 1 hr followed by carrageenan challenge measured at 2 hr relative to control; format: functional
Rattus norvegicus [19] = assay: Gastrointestinal toxicity in Rattus norvegicus Wistar (rat) duodenum assessed as appearance of redness at 5 mg/kg, po relative to vehicle-treated control; format: organism-based; parameters: dose 5 mg/kg, route oral; details: in vivo
Rattus norvegicus [20] = assay: Anti-inflammatory activity in Rattus norvegicus Wistar (rat) assessed as inhibition of carrageenan-induced paw edema administered for 1 hr followed by carrageenan challenge measured at 3 hr relative to control; format: functional
Rattus norvegicus [21] = assay: Anti-inflammatory activity in Rattus norvegicus Wistar (rat) assessed as inhibition of carrageenan-induced paw edema administered for 1 hr followed by carrageenan challenge measured at 4 hr relative to control; format: functional
Rattus norvegicus [22] = assay: Toxicity in Rattus norvegicus Wistar (rat) assessed as mortality at 5 mg/kg, po administered for 7 days measured on day 8; format: organism-based; parameters: dose 5 mg/kg, route oral; details: in vivo, 168 h
Rattus norvegicus [23] = assay: Anti-inflammatory activity in Rattus norvegicus Wistar (rat) assessed as cotton pellet-induced final granuloma weight at 5 mg/kg, po administered for 7 days measured on day 8 (reference value: 110.3 +/- 8.7 mg); format: functional
Rattus norvegicus [24] = assay: Gastrointestinal toxicity in Rattus norvegicus Wistar (rat) stomach assessed as appearance of redness at 5 mg/kg, po relative to vehicle-treated control; format: organism-based; parameters: dose 5 mg/kg, route oral; details: in vivo
Rattus norvegicus [25] = assay: Ulcerogenic activity in Rattus norvegicus Wistar (rat) stomach at 5 mg/kg, po relative to vehicle-treated control; format: toxicity, organism-based; parameters: dose 5 mg/kg, route oral; details: in vivo
Rattus norvegicus [26] = assay: Anti-inflammatory activity in Rattus norvegicus Wistar (rat) assessed as inhibition of carrageenan-induced paw edema administered for 1 hr followed by carrageenan challenge measured at 1 hr relative to control; format: functional

Compound | inhibition in vivo at 10 mg/kg (Rattus norvegicus [1]) [%] | inhibition in vivo at 10 mg/kg (Rattus norvegicus [2]) [%] | inhibition in vivo at 10 mg/kg (Rattus norvegicus [4]) [%] | Activity (Rattus norvegicus [6]) | pKd [8] | inhibition [9] | inhibition in vivo at 10 mg/kg (Rattus norvegicus [10]) [%] | pKd [11] | LD (Rattus norvegicus [13]) [mg/kg] | Activity (Rattus norvegicus [15]) | Activity (Rattus norvegicus [16]) | other results
Nc1c(C(=O)O)nc2ccccn12 | 76.7 | 61.3 | 80.3 | Active | 6.58 | inactive | 73.2 | 6.35 | 1000 | Active | – | inhibition [3]: 20%; Activity (Rattus norvegicus [5]): Non-toxic; Activity (Rattus norvegicus [7]): Non-toxic; Activity (Rattus norvegicus [12]): 70.5 mg; Activity (Rattus norvegicus [14]): Non-toxic
O=C(O)c1nc2ccccn2c1[N+](=O)[O-] | 43.5 | 57.2 | 24.4 | Active | 7.81 | inactive | 14.2 | 7.30 | 1000 | Active | Active | –
CCOC(=O)c1nc2ccccn2c1[N+](=O)[O-] | 43.1 | 54.2 | 25.4 | – | 5.98 | inactive | 14.2 | 6.64 | 1000 | – | – | –
CC(C(=O)O)c1ccc(-c2cn3ccccc3n2)cc1 (stereo unspecified) [MIROPROFEN] | – | – | – | – | 6.73 | – | – | 7.32 | – | – | – | –
O=C(O)c1cn2ccccc2n1 | 62.5 | 75.6 | 69.4 | Active | 5.81 | – | 74 | 6.19 | 1000 | Active | Active | inhibition [17]: 15.6%
COc1ccc2c(c1)c(CC(=O)O)c(C)n2C(=O)c1ccc(Cl)cc1 [INDOMETHACIN] | – | – | – | – | – | – | – | – | – | – | – | inhibition (INH) (Rattus norvegicus [18]): 65.5%; Activity (Rattus norvegicus [19]): Toxic; inhibition (INH) (Rattus norvegicus [20]): 77.3%; inhibition (INH) (Rattus norvegicus [21]): 74.6%; Activity (Rattus norvegicus [22]): Toxic; Activity (Rattus norvegicus [23]): 42.3 mg; Activity (Rattus norvegicus [24]): Toxic; Activity (Rattus norvegicus [25]): Toxic; inhibition (INH) (Rattus norvegicus [26]): 62.6%

— ChEMBL document CHEMBL3045211, “Acute and chronic anti-inflammatory evaluation of imidazo[1,2-a]pyridine carboxylic acid derivatives and docking analysis” (Med Chem Res, 2012)
